Values after ≈ are worked out from the molar mass of the structure shown. Read-outs that look alike come from different tables or passages of the source.
Tests used:
[1] = tested on: S. aureus strain ATCC29213; assay: MIC, broth microdilution antimicrobial susceptibility test (CLSI); assay type: cell-based; details: for MIC: Staphylococcus aureus
[2] = tested on: S. aureus ATCC 29247 (ampicillin resistant strain); assay: MIC against clinically isolated strain 1; assay type: cell-based; details: Staphylococcus aureus, ATCC29247
Procedure: (§1) Procedure of Antimicrobial susceptibility test: The MIC value of compounds was measured in the antimicrobial susceptibility test using the broth microdilution procedure in accordance with the CLSI guidelines.^21 Cation-adjusted Mueller Hinton broth (CA-MHB) was used for all the S. aureus strains in the assay. Cells in exponential phase of growth were diluted to approximately 5×10^5 cfu/mL. Stock solutions of each compound were freshly dissolved in dimethyl sulfoxide (DMSO). Then, serial dilutions of each compound in CA-MHB medium were added into 96-well microplate. The final percentage of DMSO in the assay was 1%. Control experiments were performed with 1% DMSO instead of the compound solution. After being incubated at 37° C. for 18 h, OD600 value of cells was measured on a microplate reader and the percentage of bacterial cell inhibition with respect to controls was calculated. The MIC value was defined as the lowest compound concentration at which the growth of bacteria was inhibited by ≥90%. Three independent assays were performed for each compound.
(§2) Results: Three compounds, namely 14av_amine16, 14dv_amine16 and 14dv_amine06, were selected to be tested against nine in-house clinically isolated bacterial strains including S. aureus ATCC29247, which is an ampicillin resistant strain, S. aureus ATCC BAA-41, ATCC BAA-1717, ATCC BAA-1720, ATCC 43300 which are methicillin resistant strains and four USA300 strains, (#417, #757, #1799 and #2690), which are the predominant strain type of community-associated MRSA strains in the United States.

[3] = tested on: USA300 #1799 (community-associated MRSA); assay: MIC against clinically isolated strain 8; assay type: cell-based, S. aureus; details: Staphylococcus aureus
Procedure: as §1, §2

G. mellonella larvae = assay: Toxicity in G. mellonella larvae; assay type: in vivo, Galleria mellonella; details: 0, 50 and 100 mg/Kg in 50% PEG in saline, no MRSA inoculation, 48-hours period
Procedure: Procedure: Compound 14av_amine16 was tested in a Galleria mellonella model, which are an easy and inexpensive in vivo model with no ethical constraints for investigating antibacterial activity of a compound.^22 The G. mellonella model of S. aureus infection was used as previously described.^24 Briefly, 1 mL aliquots of overnight cultures of S. aureus 43300 were pelleted by centrifugation and washed with sterile PBS before being resuspended in 100 μL of PBS. G. mellonella larvae (N=10) that weighed 200-300 mg were then inoculated with 10 μL of S. aureus (2.5×10^6 CFU) into the last left proleg. Larvae were then treated with compounds at 1 h before bacterial inoculation. Treatments were performed in the same manner as infection, except that compounds were injected into the next left proleg moving toward the head of the larvae. […] Data was analyzed for statistical significance using a log rank and χ square test with 1 degree of freedom. Various concentrations of compound 14av_amine16 dissolved in 50% PEG in saline (0 mg/Kg, 50 mg/Kg and 100 mg/Kg) were injected into the hemocoel of last-instar G. mellonella larvae and survival was scored over time.
To examine the feasibility of using G. mellonella for compound 14av_amine16 toxicity study, the ability of compound 14av_amine16 to kill G. mellonella larvae was examined.

B. subtilis 168 [4] = assay: MIC against B. subtilis 168; assay type: cell-based; details: Bacillus subtilis
B. subtilis 168 [5] = assay: Bacterial morphology of B. subtilis 168 (phase-contrast microscopy); assay type: cell-based; details: sub-lethal concentration, 4 h
Procedure: Procedure: The B. subtilis 168 cells were grown in LB medium. The cultures at an A600 of 0.01 from an overnight culture were inoculated in the same medium containing different concentrations of the test compounds and grown at 37° C. for 4 h. The cells for morphology studies were harvested and resuspended in 100 μL of PBS buffer containing 0.25% agarose. 10 μL of the suspension mixture were then placed on a microscopic slide pretreated with 0.1% (w/v) poly-L-lysine and the morphology of the bacterial cells was observed under a phase-contrast optical microscope at 40× magnification. The images were captured using an Olympus Bio Imaging Navigator FSX 100 microscope.

Compound: CCC(CC)c1cc(CCN2CCCN(Cc3ccc(C(F)(F)F)cc3)CC2)nc(-c2ccncc2)n1 [Compound 14av_amine16, 1-(2-(6-(pentan-3-yl)-2-(pyridin-4-yl)pyrimidin-4-yl)ethyl)-4-(4-(trifluoromethyl)benzyl)-1,4-diazepane]
- MIC^c/MIC^b: Selectivity index ([1]; E. coli ATCC 25922 MIC over S. aureus 29213 MIC): >15
- MIC ([1]; ATCC29213, S. aureus 29213, growth inhibited by ≥90%, 18 h, read-out: MIC^b: Minimum inhibitory concentration against S. aureus): 8 µM (≈ 4.09 µg/mL)
- MIC ([1]; S. aureus ATCC29213, read-out: MIC against S. aureus): 5 to 8 µM (≈ 2.56 to 4.09 µg/mL)
- MIC [2]: 8 µM (≈ 4.09 µg/mL)
- MIC [3]: 12 µM (≈ 6.14 µg/mL)
- ability to kill G. mellonella larvae (toxicity) (G. mellonella larvae): did not kill G. mellonella larvae
- MIC (B. subtilis 168 [4]): 12 µM (≈ 6.14 µg/mL)
- average cell length (B. subtilis 168 [5]): > 20 μm

Reference: patent US9951039B2, “Pyrimidines for treatment of bacterial infections” (The Hong Kong Polytechnic University, priority 2016, dated 2018)
